According to patent US20240254135A1, “POLYPHENOL COMPOUNDS” (Epirium Bio Inc., priority 2022, published 2024):

Columns and labels:
[1] = target: T1, mitochondrial ATP synthase (Mus musculus, UniProt P56480+Q03265); assay: ATP synthesis (oxygen consumption, Seahorse XF96) in fresh heart mitochondria; format: biochemical; conditions: fresh heart mitochondria (FIG. 1, FIG. 2)
T1 construct: from tissue; host or cells: mouse heart, isolated mitochondria (fresh or frozen)
Excerpt: (§1) To assess whether the fraction of synthetic and reverse hydrolytic activities of mitochondrial ATP synthase can be measured in the same preparation, a protocol was developed to monitor changes in oxygen consumption and proton release in response to changes in mitochondrial ATP synthase activity. The proton released and the concomitant changes in the pH can be monitored using the ECAR (extracellular acidification) channel in the Agilent Seahorse XF analyzer using isolated mitochondria, to ensure that the changes in pH cannot be attributed to glycolysis or other contributors to ECAR.
(§2) Mice were anesthetized with isoflurane followed by a cervical dislocation, and the heart was immediately removed and placed in ice cold relaxation buffer (5 mM sodium pyrophosphate, 100 mM KCl, 5 mM EGTA, 5 mM HEPES; pH 7.4). The heart was squeezed with tweezers to remove blood, minced with scissors, and then placed in a glass-glass Dounce homogenizer with 3 mL of HES homogenization buffer (250 mM sucrose, 5 mM HEPES, 1 mM EDTA; pH to 7.2, adjusted with KOH). The heart tissue was homogenized first with the loose pestle and followed by the tight pestle. The homogenized tissue was placed in a pre-chilled 15 ml conical tube and centrifuged at 900×g (4° C.) for 10 minutes (min). The supernatant was removed, placed in a new tube and centrifuged again at 900×g for 10 min. The supernatant was then transferred to 2 mL microcentrifuge tubes and centrifuged at 10,000×g (4° C.) for 10 min. The mitochondrial pellets were re-suspended in ice cold HES buffer and mitochondrial protein was measured with a BCA assay (Pierce). The concentrated mitochondrial pellet was stored on ice.
Heart mitochondria (0.75-1.5 μg) were loaded into a Seahorse XF96 microplate in 20 μL of MAS (70 mM Sucrose, 220 mM Mannitol, 5 mM KH2PO4, 5 mM MgCl2, 1 mM EGTA, 2 mM HEPES; pH 7.2) plus 1% free fatty acid BSA containing substrates. The loaded plate was centrifuged at 2,000×g for 5 min at 4° C. […]
Oxygen consumption was measured in isolated fresh intact mitochondria from mouse heart, as oxygen consumption is linked to maximal ATP synthesis and proton release when mitochondria are respiring either in the presence of substrates and ADP (ATP synthesizing mitochondria or state 3) or in the presence of substrates but not ADP (state 4). […]
OCR and ECAR were measured in a Seahorse XF96 analyzer under basal conditions as well as after injection of 2 μM oligomycin, two sequential additions of 1.5 μM FCCP, followed by 1 μM rotenone with 2 μM antimycin A. Respiratory parameters were calculated according to standard protocols, and all rates were corrected for non-mitochondrial respiration/background signal by subtracting the oxygen consumption rate insensitive to rotenone plus antimycin A.

[2] = target: T1, mitochondrial ATP synthase; assay: ATP hydrolysis (proton release/ECAR, Seahorse XF96) in fresh heart mitochondria; format: biochemical; conditions: fresh heart mitochondria (FIG. 1, FIG. 2)
Excerpt: as §1, §2
Heart mitochondria (0.75-1.5 μg) were loaded into a Seahorse XF96 microplate in 20 μL of MAS (70 mM Sucrose, 220 mM Mannitol, 5 mM KH2PO4, 5 mM MgCl2, 1 mM EGTA, 2 mM HEPES; pH 7.2) plus 1% free fatty acid BSA containing substrates. The loaded plate was centrifuged at 2,000×g for 5 min at 4° C. (no brake) and an additional 130 μL of MAS was added to each well. When assessing compounds effect on respirometry, the compounds were added at this point at the indicated concentration in MAS buffer. To avoid disrupting mitochondrial adherence to the bottom of the plate, MAS was added using a multichannel pipette pointed at a 45° angle to the top of the well-chamber, as instructed by the manufacturer. Substrate concentrations in the well when assay was starting in state 4 were as follow: (i) 5 mM pyruvate+5 mM malate or ii) 5 mM succinate+2 μM rotenone. Substrate concentrations in the well when assay was starting in state 3 were as follow: (i) 5 mM pyruvate+5 mM malate+4 mM ADP or ii) 5 mM succinate+2 μM rotenone+4 mM ADP. Injections were performed as indicated in the figure descriptions at the following final concentration in the well: oligomycin (3.5 μM), FCCP (4 μM), Antimycin A (2 μM). Compounds were added at the indicated concentration.
ATP hydrolysis capacity or state 4 acidification was measured using Seahorse XF96 as described in Divakaruni et al. (2018) Anal Biochem 552:60-65 and Acin-Perez et al. (2021) Life 11(9):949, in MAS (70 mM Sucrose, 220 mM Mannitol, 5 mM KH2PO4, 5 mM MgCl2, 1 mM EGTA, 2 mM HEPES; pH 7.2). Plates were loaded with 0.75-1.5 μg of mouse heart mitochondria, or 25 μg of cell lysate. Cell lysates were prepared by subjecting the samples to 4 cycles of free thaw (liquid nitrogen—37° C. water bath) before measuring protein concentration. When assessing compounds effect on respirometry, the compounds were added in MAS after sample centrifugation. Initial respiration of the samples was sustained by the addition of 5 mM succinate+2 μM rotenone in the MAS after centrifugation. Injections were performed at the following final concentration in the well: Antimycin A (2 μM), oligomycin (5 μM), FCCP (1 μM), ATP (20 mM). To assess maximal ATP concentration, ATP was injected consecutively. […]

[3] = target: T1, mitochondrial ATP synthase; assay: Maximal ATP hydrolysis capacity in frozen heart mitochondria; format: biochemical; conditions: frozen heart mitochondria, different concentrations in the assay media
Description: ATP hydrolysis capacity or state 4 acidification was measured using Seahorse XF96 as described in Divakaruni et al. (2018) Anal Biochem 552:60-65 and Acin-Perez et al. (2021) Life 11(9):949, in MAS (70 mM Sucrose, 220 mM Mannitol, 5 mM KH2PO4, 5 mM MgCl2, 1 mM EGTA, 2 mM HEPES; pH 7.2). Plates were loaded with 0.75-1.5 μg of mouse heart mitochondria, or 25 μg of cell lysate. Cell lysates were prepared by subjecting the samples to 4 cycles of free thaw (liquid nitrogen—37° C. water bath) before measuring protein concentration. When assessing compounds effect on respirometry, the compounds were added in MAS after sample centrifugation. Initial respiration of the samples was sustained by the addition of 5 mM succinate+2 μM rotenone in the MAS after centrifugation. Injections were performed at the following final concentration in the well: Antimycin A (2 μM), oligomycin (5 μM), FCCP (1 μM), ATP (20 mM). To assess maximal ATP concentration, ATP was injected consecutively.
An additional assay was developed to determine the maximal ATP hydrolysis capacity in frozen mitochondria. Maximal ATP hydrolytic capacity was assessed in frozen heart mitochondria where mitochondrial respiration is inhibited by Antimycin A and maximal ATP hydrolysis is driven by co-injection of FCCP and ATP, followed by inhibition in the presence of oligomycin.

PGC-1α = assay: In vitro PGC-1α expression in differentiated C2C12 cells (cell ELISA); format: cell-based; conditions: 1 mM
Description: Culture conditions: DMEM containing 25 mM glucose with 10% FBS supplementation; grown at 37° C. and 5% CO2.
Drugs: (+)Epicatechin, AICAR (direct activator of AMPK).
Assay Conditions: C2C12 cells were cultured in DMEM supplemented in 10% FBS up to 80% confluence. The cells were further trypsinized and seeded into a 96 well plate at a density of 5000 cells/well (well volume—100 μL) (Day 0). Following attachment, the cells were allowed to reach 80-90% confluence in the plate (typically 48 hours post seeding) and further differentiated using DMEM+2% Horse Serum (200 μL/well). The media was changed every day or at least every alternate day for 5 days to allow myoblasts to differentiate into myotubes. On day 7 (post seeding), the cells were treated with standards and test compounds for PGC-1 α assay.
PGC-1α assay: For the detection of PGC-1α, the cells were incubated with 0.5 μg/ml primary antibody (Merck, WH0010891M3) in PBS-T containing 5% BSA at 4° C. overnight. The cells were then washed three times with PBS-T for 5 minutes and incubated with 1:1000 dilution secondary antibody (Anti-rabbit IgG, HRP-linked Antibody, Cell Signaling) in PBS-T with 1% BSA for 1 hour at RT. Cells were washed three times with PBS-T for 5 minutes The cells were incubated with 100 μl TMB substrate solution for 30 minutes and the reaction was stopped with 100 μl of 2N H2SO4. […] (For plate optical density calculations, a background correction was taken at 540 nm). The final PGC-1α activation % is average of activation of 6 replicates.

| Compound | change in ATP synthesis [1] | changes in ATP hydrolysis [2] | inhibition of ATP hydrolysis [3] | % Activity (PGC-1α expression) (PGC-1α; Table 4, differentiated C2C12 cells, OD at 5 minutes) [%] | % Activity (PGC-1α expression) (PGC-1α; Table 5, differentiated C2C12, 5000 cells/well, DMSO = 100) [%] | % Activity (PGC-1α expression) (PGC-1α; Table 6, C2C12 cells, 5000 cells/well) [%] | % Activity (PGC-1α expression) (PGC-1α; Table 7, C2C12 cells, 5000 cells/well, DMSO = 100) [%] | % Activity (PGC-1α expression) (PGC-1α; Table 8, C2C12 cells, 5000 cells/well, DMSO = 100) [%] |
| --- | --- | --- | --- | --- | --- | --- | --- | --- |
| CC[C@H]1/C=C/C=C/C[C@@H](C)[C@H](O)[C@@](C)(O)C(=O)[C@@H](C)[C@H](O)[C@@H](C)C(=O)[C@@H](C)[C@H](O)[C@@H](C)/C=C/C(=O)O[C@@H]2[C@H](C)[C@H](CC1)O[C@]1(CC[C@H](C)[C@H](C[C@@H](C)O)O1)[C@H]2C [Oligomycin, oligomycin, reference compound] | worked as expected | worked as expected | dose dependent inhibition |  |  |  |  |  |
| NC(=O)c1ncn([C@@H]2O[C@H](CO)[C@@H](O)[C@H]2O)c1N [AICAR, 5-aminoimidazole-4-carboxamide-1-β-D-ribofuranoside] |  |  |  | 128 | 122 | 136 | 122 | 140 |
